Format in all cases: in vivo, mouse
One assay deals with BDNF. Put plainly: Mature BDNF levels in dissected hippocampi by Western blot. On the procedure: Method: AVP6 was administered intranasally at 50 μg/kg (5 μl/nostril) for 10 consecutive days. After sacrifice, changes in the levels of BDNF, a protein involved in long-term synaptic potentiation and memory consolidation, in the dissected hippocampi of mice were analyzed by Western blots.
The cerebral cortical tissues were homogenized in five volumes of RIPA lysis buffer (50 mM Tris-HCl pH 7.4, 150 mM NaCl, 1% NP-40, 0.25% sodium deoxycholate, 0.1% SDS, 2 mM EDTA, 1 mM PMSF), containing protease and […] inhibitor cocktails (Sigma, cat#4693132001 and 4906837001), using a Dounce homogenizer. The homogenates were kept on ice for 30 min and centrifuged at 13,000 g at 4° C. for 25 min. The supernatant was centrifuged again at 13,000 g for 15 min, the protein concentration in resulting lysates was measured, and 20 μg of protein from each sample was separated by SDS-PAGE on 4-20% precast polyacrylamide gel (Bio-Rad, 4561096). Western blot analyses were performed according to standard protocols using Anti-BDNF and α-tubulin (1:2000, mouse, DSHB) antibodies. Equal protein loading was confirmed by Ponceau S staining and normalized for tubulin immunoreactive band. Detected bands were quantified using ImageJ 1.50i software (National Institutes of Health, Bethesda, MD, USA).

A further assay relates to Hgsnat^P304L mice. Put plainly: Wet spleen weight at sacrifice (splenomegaly). The note with it: chronic daily 50 μg/kg BW; Hgsnat^P304L mice at sacrifice (9.5-11 months); vs saline.
Assay [1] deals with Hgsnat-Geo and Hgsnat^P304L MPS IIIC mice. As to the kind of experiment: Novel Object Recognition test. On the procedure:
Method: Novel object recognition test that studies working memory of mice by measuring their ability to discriminate a familiar from a novel object. AVP6 was administered intranasally at a daily dose 50 μg/kg (5 μl/nostril) for 10 consecutive days before the experimental day.
Novel object recognition test was used for assessing short-term recognition memory. Mice were placed individually in a 44×33×20 cm (length×width×height) testing chamber with white Plexiglas walls for 10 min habituation period and returned to their home cage. The next day, mice were placed in the testing chamber for 10 min with two identical objects (red plastic towers, 3×1.5×4.5 cm), returned to the home cages, and 1 hour later, placed back into the testing chamber in the presence of one of the original objects and one novel object (a blue plastic base, 4.5×4.5×2 cm) for 10 min. After each mouse, the test arena as well as the plastic objects were cleaned with 70% ethanol to avoid olfactory cue bias. The discrimination index (DI) was calculated as the difference of the exploration time between the novel and old object divided by total exploration time.
Starting from 3 weeks of age, WT C57B16 and homozygous Hgsnat^P304L male and female mice were randomly divided in treatment and control groups (6-13 mice/sex/genotype/treatment; see Table I). The control group was daily administered with saline (5 μL to each nostril), while for the treatment group, saline was supplemented with 125 µg of AVP6/mL, which would result in a dose of approximately 50 μg/kg BW/day. The peptide formulation was prepared once, aliquoted and kept frozen at −80° C. until use. At 4 months, all mice were studied by EPM, OF, YM and NOR behavioral tests. Administration of the drug or saline was continued through the days on which the assays were conducted. Then approximately at 5 months 4-5 mice in each group were sacrificed. Their blood plasma was collected, and their tissues were either snap-frozen or fixed and cryopreserved to analyze CNS pathology as described above. For the remaining mice, treatment was continued and their behaviour was studied again at the age of 6 months using OF. NOR and YM tests. Starting from the age of 8 months, Hgsnat^P304L treated and untreated mice were daily studied for the signs of urinary retention. When such signs were detected, the mice were studied by ERG and sacrificed within 1-2 days. […]
The ability of the peptide to improve the memory deficits was tested in the 4-months-old Hgsnat-Geo mice using the Novel Object Recognition (NOR) test that studies working memory of mice by measuring their ability to discriminate a familiar object a novel one. […] Immediately after the test, mice were sacrificed and the levels of mature BDNF protein were measured in their hippocampi by immunoblot.

“Also recorded” adds a separate entry of the source. No end group written: not given here.

Regarding “AVP6: N-terminally acetylated Semax, a nootropic peptide having the amino acid sequence of MEHFPGP (SEQ ID NO:1) (Ac-MEHFPGP)”, the “mature BDNF levels” value in the assay on BDNF (acute (24 h) intranasal administration, MPSIIIC mice) is given as “significantly increased”. Besides, the “mature BDNF levels in hippocampus” value with BDNF (intranasal 50 μg/kg daily for 10 days, 4-month-old Hgsnat-Geo mice) was “significantly increased; also recorded: increases BDNF levels; also recorded: partially restored levels; also recorded: partially rescued”. In addition, the “spleen weight / splenomegaly” value with Hgsnat^P304L mice was “significantly lower spleen weight”. The “short-term memory deficit, Novel Object Recognition” value in assay [1] (chronic 50 μg/kg BW/day, Hgsnat^P304L mice at 6 months) was “partially rescues deficits in spatial and short-term memory”. For the same substance, the “short-term memory deficit (discrimination and recognition indexes), Novel Object Recognition” value in assay [1] (chronic daily intranasal 50 μg/kg BW from 3 weeks, Hgsnat^P304L mice at 4 months) was “rescues deficits in spatial and short-term memory; also recorded: show the rescue of all above deficits”. The “working (short-term) memory deficit: discrimination index and recognition index, Novel Object Recognition” value in assay [1] (intranasal 50 μg/kg daily for 10 consecutive days, 4-month-old Hgsnat-Geo mice) was “significantly recovered memory deficits; also recorded: rescues working memory deficits; also recorded: This deficit is rescued”. Also, the “discrimination index and recognition index in WT mice, Novel Object Recognition” value in assay [1] (intranasal 50 μg/kg daily for 10 days, WT mice vs saline) was “trend for an increase”.

The record behind these values is US20240043473A1, “NOOTROPIC PEPTIDES FOR TREATING LYSOSOMAL STORAGE DISEASES” (Phoenix Nest Inc., priority 2021, published 2024).
